Experiments:
Botrytis cinerea = assay: Antifungal effect against Botrytis cinerea infection on wounded peel of banana fruits (Colby synergy); type: in vivo; settings: natamycin-insecticide 1:0 ppm
Text: (§1) wherein X and Y are the observed antifungal activities (in %) of the individual active ingredients x and y, respectively. If the observed antifungal activity (O in %) of the combination exceeds the expected antifungal activity (E in %) of the combination and the synergy factor O/E is thus >1.0, the combined application of the active ingredients leads to a synergistic antifungal effect.
(§2) Application: The broad bean pods were washed under tap water, and were subsequently surface sterilized by placing them in a 0.1% sodium hypochlorite solution for 5 minutes. The pods were then rinsed with tap water and dried. Transparent plastic containers were prepared by placing a piece of absorbing paper in the container and adding 25 ml of water, one container per treatment was used. The pods were cut in two, and two halve pods were incubated per box. The skin of broad bean pods was damaged with a needle, ø 2 mm and to a depth of about 3 mm into the fruit, with—depending on the size of the pod—2 to 4 wounds per half pod. In total, 6 wounds were incubated per treatment, of which 1 was used as a control. A volume of 20 microliter of a natamycin/insecticide composition, as presented herein above, was applied by pipette to each wound. The treatments were then left to air-dry. Once dried, a mycelium plug of Sclerotinia sclerotiorum was placed upside down on each wound, so that the mycelium was in direct contact with the wound. Per treatment 5 wounds were inoculated with the fungus, while the 6th and last wound was used as negative non-inoculated control. After inoculation, the containers were directly closed with a transparent plastic lid.
The infection area was measured 5 days after inoculation.
A few changes were made for the banana experiments: 5 wounds per banana were made, on each wound 40 microliter of treatments was pipetted. The treatments were then left to air-dry. Once dried, 2 microliter of a freshly prepared inoculum was pipetted on four of the wounds. The inoculum consists of […] potato dextrose broth (PDB) medium containing Botrytis cinerea spores at a concentration of 10^6 spores per ml. The fifth wound was used as negative non-inoculated control. Experiment was performed in 4-fold.
Assessment of the infection area was performed 3 days after inoculation. Experiment was performed in 4-fold.
Imidacloprid was formulated as described in Table 2. Assessment of the efficacy was 5 days after inoculation. Experiment was performed in 4-fold.

Fusarium culmorum = assay: Antifungal effect against Fusarium culmorum on PDA petri dishes (fungal growth area, Colby synergy); type: cell-based; settings: natamycin-insecticide 0.5-0 ppm
Text: (§3) The Colby equation (Colby, 1967. Weeds 15:20-22) calculates the expected antifungal activity (E in %) of a combination comprising more than one active ingredients:
as §1
Agar medium was prepared by mixing in a 100 ml Duran bottle 3.9 g of potato dextrose agar (PDA) from Carl-Roth (Carl-Roth GmbH+Co. KG, Karlsruhe, Germany) with 100 ml deionized water and autoclaving the Duran bottle at 120° C. for 15 minutes. After autoclaving, the solution was cooled by putting it in a 48° C. oven for about two hours. Afterward the semi-liquid PDA solution was carefully mixed with natamycin and/or insecticide dosages as specified in Table 5 showing the interaction results on petri dishes. The medium in the Duran bottle was divided over 5 petri dishes (90×15 mm), 20 ml per petri dish by using 25 ml serological pipets (ROTILABO®; Carl-Roth). Each natamycin and/or insecticide treatment was performed in fivefold.
Fungal spore suspensions were prepared by drenching a fully grown petri dish with sterile water. The fungus was scraped off and filtered through a Miracloth (pore size: 22-25 μm) (Merck KGaA, Darmstadt, Germany; catalogue number: 475855). The number of spores were counted with a hemocytometer and fungal suspension was adjusted to 10^6 spores per ml. Afterward, 5 μl of prepared spore suspension was pipetted on the center of the agar plate. The plates were incubated at 25° C. Measurement of the fungal growth was done using callipers at different time points. Assessment of the infection area was 6 days after inoculation.
The insecticide levels and the period after which the assessments were made are presented as specified for the different insecticides are presented in Table 5 below. Synergistic calculation was done using the Colby equation. Experiment was performed in 5-fold.
The experiments were performed as described in Example 3. Assessment of the infection area was 6 days after inoculation. Experiment was performed in 5-fold.
The experiments were performed as described in Example 3. The product KARATE ZEON® of company Syngenta containing the active ingredient lambda-cyhalothrin belonging to IRAC Group 3 was tested. Assessment of the infection area was 3 days after inoculation. Experiment was performed in 5-fold.

Sclerotinia sclerotiorum = assay: Antifungal effect against Sclerotinia sclerotiorum infection on wounded skin of broad bean pods (rot area, Colby synergy); type: in vivo; settings: natamycin-insecticide 15-0 ppm
Text: as §3, §1
• 1) Control (without natamycin and lambda-cyhalothrin) • 2) Natamycin at a level of 15 ppm • 3) Lambda-cyhalothrin (in the product KARATE ZEON® of Syngenta) at a levels of 0.15 ppm, 0.6 ppm, 3 ppm and 15 ppm • 4) Natamycin at a level of 15 ppm combined with lambda-cyhalothrin at levels of 0.15 ppm, 0.6 ppm, 3 ppm or 15 ppm.
Used pathogen: Sclerotinia sclerotiorum.
as §2
All pods were kept at room temperature (20° C.). Wounds of the pods were checked after 30 h of incubation.
Replicates: All treatments for the broad bean pod experiment were performed on two individual pod halves resulting in 5 wounds per treatment, while a sixth wound served as control.
The experiments were performed as described in Example 1.
The experiments were performed as described in Example 1. Assessment of the infection area was 23 h after inoculation. Experiment was performed in 5-fold.
The experiments were performed as described in Example 1. Thiamethoxam belongs to IRAC Group 4. Assessment of the infection area was 31 hours after inoculation. Experiment was performed in 5-fold.
The experiments were performed as described in Example 1. The product SPECTRE® of company (Adama) containing the active ingredient chlorfenapyr belonging to IRAC Group 13 was tested. Assessment of the infection area was 23 hours after inoculation. Experiment was performed in 5-fold.

[1] = 3 days after inoculation, Table 14A
[2] = 3 days after inoculation, Table 14B
[3] = 5 days after inoculation, Table 12A
[4] = 5 days after inoculation, Table 12B
[5] = 5 days after inoculation, Table 18A
[6] = 5 days after inoculation, Table 18B
[7] = 3 days after inoculation, Table 11
[8] = 6 days after inoculation, Table 6
[9] = 23 h after inoculation, Table 4
[10] = 23 h after inoculation, Table 7
[11] = 23 hours after inoculation, Table 9
[12] = 30 h after inoculation, Table 3
[13] = 31 hours after inoculation, Table 8

C[C@@H]1C/C=C/C=C/C=C/C=C/[C@H](O[C@@H]2O[C@H](C)[C@@H](O)[C@H](N)[C@@H]2O)C[C@@H]2O[C@](O)(C[C@@H](O)C[C@H]3O[C@@H]3/C=C/C(=O)O1)C[C@H](O)[C@H]2C(=O)O [natamycin]
Avg infected area (Botrytis cinerea; [1]): 9.2 mm2 | Observed antifungal activity (Botrytis cinerea; [1]): 18.8% | Avg infected area (Botrytis cinerea; [2]): 5.5 mm2 | Observed antifungal activity (Botrytis cinerea; [2]): 43.9% | Avg infected area (Botrytis cinerea; [3]): 52.6 mm2 | Observed antifungal activity (Botrytis cinerea; [3]): 18.0% | Avg infected area (Botrytis cinerea; [4]): 84.7 mm2 | Observed antifungal activity (Botrytis cinerea; [4]): 14.3% | Avg infected area (Botrytis cinerea; [5]): 30.7 mm2 | Observed antifungal activity (Botrytis cinerea; [5]): 37.6% | Avg infected area (Botrytis cinerea; [6]): 25.9 mm2 | Observed antifungal activity (Botrytis cinerea; [6]): 11.6% | Avg infected area (Fusarium culmorum; [7]): 297.7 mm2 | Observed antifungal activity (Fusarium culmorum; [7]): 17.9% | Avg infected area (Fusarium culmorum; [8]): 810.2 mm2 | Observed antifungal activity (Fusarium culmorum; [8]): 18.8% | Avg infected area (Sclerotinia sclerotiorum; [9]): 104.2 mm2 | Observed antifungal activity (Sclerotinia sclerotiorum; [9]): 33.5% | Avg infected area (Sclerotinia sclerotiorum; [10]): 99.9 mm2 | Observed antifungal activity (Sclerotinia sclerotiorum; [10]): 26.9% | Avg infected area (Sclerotinia sclerotiorum; [11]): 66.2 mm2 | Observed antifungal activity (Sclerotinia sclerotiorum; [11]): 41.8% | Avg infected area (Sclerotinia sclerotiorum; [12]): 278.54 mm^2 | Observed antifungal activity (Sclerotinia sclerotiorum; [12]): 11.4% | Avg infected area (Sclerotinia sclerotiorum; [13]): 172.7 mm2 | Observed antifungal activity (Sclerotinia sclerotiorum; [13]): 33.1%

— US20250280827A1, “An antifungal composition comprising natamycin and at least one insecticide” (priority 2021, published 2025)
